# Experiment: in vitro
# Conditions: human, hela cells, % viability
row,SMILES,"viability at 28.5 h, 10 µM"
1,CCCCC(Sc1ccc2nnc(-c3ccccn3)n2n1)C(=O)O (stereo not shown) [CBK287622],112%
2,CS(=O)(=O)N(CC(=O)O)c1cccc(C(F)(F)F)c1 [CBK286988],87.8%
3,CCn1c2ccccc2c2cc(CN(C)Cc3ccccc3)ccc21 [CBK261901],94.1%
4,CC(C)n1nccc1NC(=O)CCn1c(C(F)F)cc2cccnc21 [CBK284690],99.3%
5,CC(C)c1ccc(S(=O)(=O)N2CCN(c3ccc(C#N)cc3)CC2)cc1 [CBK044404],97.3%
6,CCN(C(=O)c1cnc2scc(C)n2c1=O)c1ccccc1 [CBK287452],105%
7,COCCn1cnnc1C(C)NC(=O)N(C)Cc1nc2ccccc2s1 (stereo not shown) [CBK307427],88.2%
8,Cc1ncc(CO)c(CN)c1O [CBK278211C],86.8%
9,N#CCCN(Cc1ccco1)C(=O)c1ccc(OCC2CC2)cc1 [CBK304051],85%
10,CCNC(=O)CN(C)S(=O)(=O)c1cc(Cl)ccc1Cl [CBK091853],94.1%
11,CCOCCCn1c(SCC(=O)NC(Cc2ccccc2)C(=O)O)nc2ccccc2c1=O (stereo not shown) [CBK297132],90.5%
12,COC(=O)[C@H]1CN(C(=O)c2cn(C)nc2C)C[C@@H]1c1ccccc1F [CBK283511],88.2%
13,CCOC(=O)c1c(NC(=O)CN2CCCCC2)sc2c1CCCC2=O [CBK263224],112%
14,CC1(C(=O)O)CC(C)(C(=O)O)CC(C)(C(=O)O)C1 (stereo not shown) [CBK266107],91.8%
15,CCCn1nc(C)c(-c2cncn2CC(C)n2nc(C)cc2C)c1C (stereo not shown) [CBK281793],103%
16,Cc1ccccc1NC(=O)Nc1ccc(OCc2ccccc2)cc1 [CBK262861],108%
17,O=C(Cc1c(Cl)cccc1Cl)Nc1ccc2[nH]ccc2c1 [CBK159664],113%
18,CC(C)[C@@H](CO)Nc1nc(-c2occc2C=O)cnc1N [CBK063733],102%
19,COc1cccc(OC)c1-c1cn2ccnc2c(N[C@H](CO)C(C)C)n1 [CBK036586],99.5%
20,O=C(Nc1ccc2c(c1)OCO2)Nc1c(Br)cnc2ncccc12 [CBK105596],93.4%
21,O=C(Cn1cnc(NCc2cscn2)n1)N1CCCCCC1 [CBK304061],98%
22,O=C(NC(=O)c1ccc2ccccc2c1)Nc1ccc(Br)cc1 [CBK261735],107%
23,COc1ccc(-c2cnc(N)c(NCC(C)C)n2)c(OC)c1OC [CBK063855],95.4%

row,SMILES,"viability at 28.5 h, 10 µM"
1,COc1cccc(CN2CCCC(NC(=O)c3csc(C(C)=O)c3)C2)c1 (stereo not shown) [CBK307297],87.6%
2,O=C(Nc1cc(Cl)ccc1C(=O)O)c1ccc2c(c1)C(=O)N(Cc1cccnc1)C2=O [CBK266455],89.9%
3,CCCOc1ccc(-c2cn(CC(=O)NN)cn2)cc1 [CBK261790],106%
4,Cn1c(=O)oc2ccc(C(=O)Nc3cccc(-c4ccc(F)cc4)c3)cc21 [CBK286023],84.9%
5,COCCNc1nccnc1-c1ccsc1 [CBK038008],95.4%
6,Cc1ocnc1C(=O)Nc1nc2c(cc1C#N)CCC2 [CBK306365],92.7%
7,Cc1nc2c(C(=O)NCC(F)(F)F)cnn2c(C)c1Cc1ccccc1 [CBK162208],94.8%
8,CCOc1cc(NC2CCN(C(=O)NCC(F)F)CC2)ncn1 [CBK305485],85.6%
9,COc1cccc(C(=O)COC(=O)c2ccc3c(c2)C(=O)N(c2ccc(C(C)=O)cc2)C3=O)c1 [CBK264872],84%
10,Cc1ccc(S(=O)(=O)N=C2NCN(C)CN2)cc1 [CBK261972],94.3%
11,CC(=O)c1ccc(N2CCN(C(=O)c3cc(-c4ccncc4)nc4ccc(Cl)cc34)CC2)cc1 [CBK267781],91.8%
12,CC(=O)Nc1cc(NC(=O)CCCC(=O)O)ccc1Cl [CBK263949],73.3%
13,Cc1cc(C)c(OCC(=O)Nc2ccc3oc(-c4cncc(Br)c4)nc3c2)c(Cl)c1 [CBK266634],100%
14,O=C1NCCNC(=O)C2(C/C=C/COc3ccccc31)CCCNC2 (stereo not shown) [CBK292171],115%
15,O=C(CSc1nnc(-c2ccco2)o1)N1CCN(CC(=O)N2CCCC2)CC1 [CBK295136],111%
16,CC(=O)C1=C(O)C(=O)N(CC(=O)O)C1c1ccc(Br)cc1 (stereo not shown) [CBK286712],89.9%
17,O=C(COc1ccccc1)Nc1nnc(-c2ccccc2)o1 [CBK287599],99.8%
18,CCC1CCCCN1C(=O)C1CCCCC1 (stereo not shown) [CBK084528],90%
19,O=C(NC(c1ccccc1)c1ccco1)C1CCN(CCc2c[nH]c3ccccc23)CC1 (stereo not shown) [CBK148290],100%
20,Cc1cc(=O)oc2c1c(C)nn2-c1nn[nH]n1 [CBK266732],91%
21,Cc1cc(C)c2c(c1)-c1c(ssc1=S)C(C)(C)N2C(=O)CSc1nnc[nH]1 [CBK263038],88.5%
22,COc1ccc(OC)c(-c2nc(Nc3ccccc3C)sc2CC(=O)O)c1 [CBK126811],101%
23,CCOC(=O)c1c(NC(=O)C2CCCCC2C(=O)O)sc(C)c1C (stereo not shown) [CBK265469],99.2%

row,SMILES,"viability at 28.5 h, 10 µM"
1,COc1cc(-c2ccc(Nc3cccnc3)nc2)cc(OC)c1OC [CBK037704],84.6%
2,COc1ccc2[nH]cc(C3CCN(Cc4nc(C)no4)CC3)c2c1 [CBK305982],94.6%
3,Cc1cc(C(=O)N2CCN(c3ncccn3)CC2)n[nH]1 [CBK144526],111%
4,O=C(C[n+]1ccccc1)c1ccccc1Cl [CBK016283B],112%
5,O=C(Nc1ccccc1C(=O)O)c1cccc(S(=O)(=O)NCc2ccccc2)c1 [CBK261258],98.1%
6,Cc1nn(Cc2ccccc2)c(C)c1C(=O)N(C)C [CBK015942],104%
7,O=C(NC(c1ccccc1)c1ccccn1)c1ccco1 (stereo not shown) [CBK144109],106%
8,CC(=O)NCCNC(=O)c1ccc(C)nc1N1CCOCC1 [CBK076453],98.6%
9,O=C(Cc1ccccc1F)N1CCC(c2n[nH]c3ncccc23)CC1 [CBK284908],89.6%
10,O=C(Nc1ccc(F)cc1)OCC1COc2ccccc2C1 (stereo not shown) [CBK017146],85.5%
11,CCS(=O)(=O)Nc1ccc(C2=NN(S(=O)(=O)c3ccc(F)cc3)C(c3ccccc3C)C2)cc1 (stereo not shown) [CBK269161],103%
12,CCCc1cc(=O)n2c(n1)SCOC2 [CBK010967],108%
13,COc1cc(CN2CCN(Cc3cccc4ccccc34)CC2)c([N+](=O)[O-])cc1OC [CBK074450G],106%
14,CN1C2CCC1CC(OC(=O)c1cccnc1)C2 (stereo not shown) [CBK026000],100%
15,O=c1[nH]c(N2CCC3(CC2)OCCO3)nc2c(-c3ccccc3Cl)csc12 [CBK291128],114%
16,c1ccc(-c2cccc(-c3cc(N4CCN(CCN5CCCC5)CC4)ncn3)c2)cc1 [CBK091164],99.7%
17,Cc1nn2c(-c3ccncc3)ccnc2c1-c1ccccc1 [CBK288548],103%
18,CN(CC(=O)N(C)CC(F)(F)F)Cc1cccnc1 [CBK282075],89.1%
19,CCn1cnc2sc(-c3ccccc3)cc2c1=O [CBK287952],65.7%
20,CC(C)N(C(=O)Cn1cccc2cc(C(F)F)nc1-2)C(C)C [CBK285012],85.5%
21,NCCC(=O)N(CCc1cc(C(F)(F)F)cc(C(F)(F)F)c1)c1ccc(Oc2ccccc2)cc1 [CBK002998T],97.7%
22,COc1ccc(C(=O)Nc2nc(OCC(F)(F)F)cnc2/C=C\c2ccccc2)c(OC)c1 [CBK145367],104%
23,O=C1NC2(CCCCCC2)C(=O)N1Cc1cnn(-c2ccccc2)n1 [CBK305571],100%

row,SMILES,"viability at 28.5 h, 10 µM"
1,O=C1c2cccc3cccc(c23)C(=O)N1CCN1CCN(S(=O)(=O)c2ccccc2[N+](=O)[O-])CC1 [CBK262530],97.7%
2,O=C(CC1(O)C(=O)Nc2ccccc21)CC1(O)C(=O)Nc2ccccc21 (stereo not shown) [CBK263705],93.1%
3,CC(C)NC(=O)Cn1c(-c2cccs2)cc2cccnc21 [CBK282454],97.3%
4,Cc1ccc(N2C(=O)C(CC(=O)Nc3cccc(F)c3)N(CCc3ccncc3)C2=O)cc1 (stereo not shown) [CBK268891],96.5%
5,CC(=O)N1CCc2ccc(S(=O)(=O)n3ccc4c(N5CCNCC5)cccc43)cc2C1 [CBK001632C],101%
6,CN1CCC2(CC1)SC(=O)Nc1ccc(Br)cc12 [CBK017821B],100%
7,OC(COc1c(Br)cccc1Br)CN1CCCCC1 (stereo not shown) [CBK003077T],90.9%
8,Cc1ccc([C@]2(O)CC[C@H]3CN(Cc4cccc(F)c4F)C[C@H]32)nc1 [CBK283088],98.1%
9,Cc1ccc(S(=O)(=O)Nc2c(C(=O)N3CCOCC3)[nH]c3ccccc23)cc1 [CBK050066],88.7%
10,Cn1cc(NC(=O)c2ccc(COc3c(F)c(F)cc(F)c3F)o2)c(C(=O)O)n1 [CBK287014],98.5%
11,O=C(CSc1nc[nH]n1)c1ccc2c(c1)OCCO2 [CBK267360],101%
12,COc1ccc(OC)c(-n2cnc3c2NC(=O)CC3c2ccccc2Cl)c1 (stereo not shown) [CBK287983],91.1%
13,O=C(NCc1ccccc1OC1CCNC1)c1cnccn1 (stereo not shown) [CBK029462T],101%
14,c1ccc2c(-c3cn4ccnc4c(N4CCOCC4)n3)cccc2c1 [CBK037387],91.6%
15,Cc1ccc(Cl)c(OCc2nnc(SCC(=O)O)n2N)c1 [CBK268992],105%
16,CCC(C)NC(=O)Cn1c(C2CCNCC2)cc2cccnc21 (stereo not shown) [CBK285003],103%
17,CC(=O)c1sccc1NS(=O)(=O)c1ccccc1 [CBK038384],92.5%
18,CCc1ccc(CNC(=O)Cn2nnc(-c3ccc(CNC4CCOCC4)cc3)n2)cc1 [CBK161029C],89.8%
19,CCCCCC1CC(CC(=O)NC(=S)Nc2ccccc2Cl)C(=O)O1 (stereo not shown) [CBK019495],86.8%
20,N#Cc1ccccc1OCCO [CBK001443],97.9%
21,Oc1ccc(Nc2ccnc3cc(Cl)ccc23)cc1 [CBK012365C],93.5%
22,CN(C)CCN(C)C(=O)c1ccc(-c2ccco2)nc1N(C)C [CBK106078],84.1%
